According to patent US20050187141A1, “Control of gene induced by oxidated lipids in human artery wall cells” (The Regents of the University of California, priority 2000, published 2005):

How the values were obtained:
paraoxonase-1 (PON1) = assay: Paraoxonase activity of plasma fractions of apo E deficient mice; type: in vivo; conditions: 2.0 mg/ml in drinking water, FIG. 7
Protocol: Plasma fractions obtained as described in above were analyzed for paraoxonase activity using paraoxon a substrate as reported by Watson et al. (1995) J Clin Invest., 96: 2882-2891). The control samples are shown as diamonds in the figure.

[1] = Lipoprotein cholesterol levels (FPLC) in apo E deficient mice; type: in vivo; conditions: 2.0 mg/ml in drinking water, 24 and 48 hrs, FIG. 6
Protocol: Apo E deficient mice were purchased from Jackson Laboratories (Bar Harbor, Me.). The mice were 5 weeks old at the time of the experiments. The animals were maintained on a chow diet containing 4% fat, obtained from Ralston-Purina (St. Louis, Mo.). Synthetic 1,2-ditetradecanoyl-sn-glycero-3-phosphocholine (shown in the figure as circles at 24 h and as triangles at 48 h and abbreviated as DGP; 99+% purity, catalog # P 2663, Lot # 17H8362, Sigma Chemical Company, St. Louis Mo.) was added at 2.0 mg/ml to the drinking water of one group of apo E deficient mice (n=5). […] After 24 and 48 hrs blood was collected from the retroorbital sinus under mild anesthesia into heparinized tubes under an approved protocol of the UCLA Animal Research Committee. Plasma was separated and was fractionated using fast protein liquid chromatography (FPLC). Cholesterol content of the fractions was determined using a kit (Infinity reagent) obtained from Sigma Chemical Company.

fatty streak lesions = assay: Fatty streak lesions in apo E deficient mice; type: in vivo; conditions: 1.0 mg/ml in drinking water, 5 weeks, FIG. 9
Protocol: Apo E deficient mice were purchased from Jackson Laboratories (Bar Harbor, Me.). The mice were 5 weeks old at the time of the experiments. The animals were maintained on a chow diet containing 4% fat, obtained from Ralston-Purina (St. Louis, Mo.). One group (n=10) was given in their drinking water 1.0 mg/ml of 1,2-dimyristoyl-sn-glycero-3-phosphocholine (1,2-ditetradecanoyl-sn-glycero-3-phosphocholine) (shown as DGP on the figure, approximately 99% pure, catalog # P 7331, Sigma Chemical Company, St. Louis, Mo.). […] After 5 weeks of treatment, the animals were sacrificed and hearts were harvested and processed according to the methods described by Qiao et al. (1994) Arterioscl Thromb, 14: 1480-1497). In brief, 10 μm thick cryosections were stained with Oil red 0 and hematoxylin and counterstained with fast green and examined by light microscopy for the identification of atheromatous lesions. Lesion size was measured using a 1.0 cm optical grid with 20×20 grid lines. Under 10× magnification, each square corresponded to 1/400 mm^2 (or 2500 μm^2). A square with lipophilic stain was counted as lesion if the visually observed stain covered at least 1/8th of the square.

[2] = system: Human artery wall cell cocultures; assay: HDL protective capacity and LDL susceptibility to oxidation in human artery wall cell cocultures; type: in vivo, apo E deficient mice; conditions: 18 hrs, FIG. 8
Protocol: Plasma fractions obtained as described above were pooled in the region containing LDL and the region containing HDL. Human artery wall cell cocultures were prepared as reported previously (Navab et al. (1997) J Clin Invest., 99: 2005-2019) and used to determine the extent of LDL oxidation as judged by the level of monocyte chemotactic activity generated by oxidized LDL. As the assay controls, to some wells containing the artery wall cocultures was added a standard human LDL (h LDL) at 200 μg LDL protein per ml. To other wells was added h LDL+human HDL (h HDL) at 350 μg HDL protein per ml. The protective capacity of HDL obtained from apo E deficient mice was then tested. To some wells was added standard human LDL (Std. h LDL) at 200 μg LDL protein per ml plus 50 μg of HDL cholesterol obtained from the mice that had received drinking water without additions (Std. h LDL+Cont. E null HDL). To other wells in addition to human LDL, HDL (at 50 μg cholesterol/ml) obtained from mice given drinking water containing 2.0 mg per ml of 1,2-dimyristoyl-sn-glycero-3-phosphocholine (1,2-ditetradecanoyl-sn-glycero-3-phosphocholine) (Std. h LDL+DGP HDL) was added and incubated for 18 hrs. LDL susceptibility to oxidation was additionally determined. […] The values are mean±SD of the number of monocytes counted in 9 high power fields from quadruple wells. […]

lesions = assay: Lesion regression in 10 month old apo E deficient mice; type: in vivo; conditions: 1.0 mg/ml in drinking water for five weeks after 10 months on chow, FIG. 10
Protocol: Apo E deficient mice were purchased from Jackson Laboratories (Bar Harbor, Me.). The mice were maintained on a chow diet containing 4% fat, obtained from Ralston-Purina (St. Louis, Mo.) for 10 months at which time one group (n=5) were sacrificed and lesions determined. A second group (n=8) received 1.0 mg/ml of synthetic 1,2-ditetradecanoyl-sn-glycero-3-phosphorylcholine (DGP, approximately 99% pure, catalog # P 7331, Sigma Chemical Company, St. Louis, Mo.) in their drinking water for another five weeks. […] After 5 weeks of treatment, the animals were sacrificed. The hearts and blood vessels from the three groups were harvested and processed as previously reported (Qiao 1994) to determine lesion area.

[3] = system: human aortic endothelial cells; assay: Monocyte chemotactic activity of supernatants of Ox-PAPC treated HAECs; type: cell-based; conditions: oligonucleotide 100 nM, 18 h, then Ox-PAPC 50 μg/ml 4 h, FIG. 5A-5C
Protocol: (§1) Human aortic endothelial cells were transfected with either ‘antisense’ or ‘sense’ phosphorothioate oligonucleotides (100 nM) to human MKP-1. Eighteen hours later, control and transfected cells were either left untreated or treated with Ox-PAPC (50 μg/ml) for an additional four hours. Following the treatments, cell supernatants were collected and analyzed for monocyte chemotactic activity.

human MKP-1 = assay: Western blot of MKP-1 protein in Ox-PAPC treated HAECs after oligonucleotide transfection; type: cell-based; conditions: oligonucleotide 100 nM, 18 h, then Ox-PAPC 50 μg/ml 4 h, FIG. 3A, 3B
Protocol: HAECs were transfected with either ‘antisense’ or ‘sense’ phosphorothioate oligonucleotides (100 nM) to human MKP-1. Eighteen hours later, control and transfected cells were either left untreated or treated with Ox-PAPC (50 μg/ml) for an additional four hours.

[4] = system: human aortic endothelial cells; assay: Monocyte adhesion assay with supernatants of Ox-PAPC treated HAECs; type: cell-based; conditions: oligonucleotide 100 nM, 18 h, then Ox-PAPC 50 μg/ml 4 h, FIG. 4
Protocol: as §1, with “analyzed in a” for “analyzed for”, “monocyte adhesion assay.” for “monocyte chemotactic activity.”

influenza A = conditions: injected, mice; cited from earlier work

## CCCCCCCCCCCCCC(=O)OC[C@H](COP(=O)([O-])OCC[N+](C)(C)C)OC(=O)CCCCCCCCCCCCC [1,2-dimyristoyl-sn-glycero-3-phosphocholine]
paraoxonase-1 (PON1)
  content of paraoxonase-1 (PON1) associated with HDL: dramatic increase
[1]
  high density lipoprotein (HDL) levels: dramatic increase
  very low density lipoproteins (VLDL) or low density lipoproteins (LDL): without a significant change
Fatty streak lesions
  reduction in atherosclerosis: 84.1%
[2]; HDL from mice given 2.0 mg per ml in drinking water, 50 μg cholesterol/ml
  HDL protective capacity (protecting LDL against oxidation): more effective in protecting LDL against oxidation
[2]; LDL from mice given 2.0 mg per ml in drinking water, 100 μg LDL cholesterol per ml
  LDL susceptibility to oxidation: more resistant to oxidation by artery walls
lesions
  lesion area change: dramatic lesion regression

## antisense oligonucleotides: antisense phosphorothioate oligonucleotide to human MKP-1; 5′-GGAACTCAGTGGAACTCAGG-3′ (SEQ ID NO:2) (antisense GGAACTCAGTGGAACTCAGG; all phosphorothioate, sugars by position and methylation of C not given here)
[3]
  monocyte chemotactic activity / monocyte chemotaxis: did not promote monocyte chemotaxis
Human MKP-1
  Ox-PAPC-induced MKP-1 protein expression: prevent the accumulation of MKP-1 protein
[4]
  Ox-PAPC induction of monocyte adherence: did not promote monocyte adhesion

## apo A-I: apo A-I, injected in mice with influenza A in a copending application
Influenza A
  signs and symptoms of influenza A: greatly ameliorated
